From US6537783B1, “Prefunctionalized nucleotide and process for amplifying a sequence using a prefunctionalized nucleotide” (Bio Merieux, priority 1996, dated 2003)

Key:
[1] = tested on: Mycobacterium tuberculosis 16S RNA; assay: Incorporation yield of the nucleotide in the TMA amplification products (HPLC of digested amplicons; fluorescence for fluorescein-UTP); assay type: biochemical; conditions: 10^6 copies target, total 4 mM
Protocol: The incorporation of the prefunctionalized nucleotides 27a, 27b and 32, and, by way of comparison, Boerhinger's labeled nucleotide ref. 1 427 857, into the products of the TMA amplification reaction is tested using Gen-Probe amplified™ MTD2 (amplified Mycobacterium tuberculosis direct test) kits. This reaction amplifies a 136-base fragment of the mycobacterial 16S RNA. It uses four enzymic activities (DNA-dependent RNA polymerase, DNA-dependent DNA polymerase, RNA-dependent DNA polymerase and ribonuclease H) and two enzymes, T7 RNA polymerase and AMV reverse transcriptase. By means of recurrent reactions involving steps of transcription, reverse transcription and digestion of the RNA contained in the DNA:RNA double strands, which steps resemble an RNA virus replication cycle, this reaction enables a nucleic acid sequence which is recognized by two primers (a simple primer and a primer containing the T7 RNA polymerase promoter) to be amplified specifically. The amplification factor is very substantial ([…]) and the sensitivity is very good (from 1 to 10 copies). 90% of the resulting products consist of single-stranded RNAs and 10% consist of double-stranded DNAs.
Amplification reactions are carried out using 10^6 copies of Mycobacterium tuberculosis 16S RNA. This target RNA is previously obtained and quantified by means of the following method: the 16S RNA gene is cloned into a plasmid under the control of a promoter. The 16S RNA is then obtained by in vitro transcription. This RNA is purified by extraction with phenol/chloroform and filtration through microcon 30™ (Amicon). It is assayed by its absorption at 260 nm.
The standard TMA reactions contain 4 mM of each of the natural rNTPs (ATP, CTP, GTP and UTP). For the purpose of incorporating the prefunctionalized nucleotides into the amplification products, the reaction is performed while including one of these modified nucleotides in the reaction buffer. The reaction is studied in the presence of different ratios between the concentrations of the modified nucleotide and the natural nucleotide, while at the same time ensuring that the total concentration of each nucleotide of the same series, whether modified or natural, is 4 mM. The ratios studied are 0%, 10%, 30%, 50% and 70% (except in the case of the fluorescein-UTP, which it was not possible to test at 70%). A negative control is carried out, with this negative control consisting of a reaction which comprises all the reagents, including the highest ratio of modified nucleotides employed (70 or 50%), apart from the enzymes (which are replaced by the buffer used for redissolving the lyophilized enzymes).
The ratio between the incorporated prefunctionalized nucleotide and the analogous natural nucleotide is determined in order to assess the prefunctionalization of the amplicons obtained in the presence of the prefunctionalized nucleotides 27a (CTP-(N4)-C6O2—NH2) and 27b (CTP-(N4)-C4—NH2) and, by way of comparison, in the presence of the labeled nucleotide fluorescein-12-UTP (Boerhinger, ref. 1 427 857).
The amplification products obtained on carrying out Example 22 are separated from the nucleotides which are in excess in the reaction by means of filtration through Microcon 30™ (from Amicon) and dissolved in 50 μl of water. In the case of the amplification in the presence of fluorescein-12-UTP, the purification is carried out on sephadex G50 (the fluorescein is absorbed on Microcon).
The absorption of the amplification products at 260 nm is then determined (the control without enzyme should have a very low concentration).
In the case of the amplification reactions which include the prefunctionalized nucleotides (and their controls), a step of digesting the nucleic acids down to the nucleoside stage is then carried out:
5 10^14 amplification product copies (approximately 35 μg) are diluted in a final volume of 86 μl of water (in the case of the control without enzyme, a volume is used which is equal to the largest sample […] volume). […]

[2] = tested on: Mycobacterium tuberculosis 16S RNA; assay: Impact of incorporation of prefunctionalized nucleotides on TMA sensitivity (ELOSA, electrophoresis, Northern blotting); assay type: biochemical; conditions: for sensitivity of the TMA reaction: 10,000 to 10 target copies, ratios 100% to 0%, at a determinable concentration of prefunctionalized nucleotide
Text: In the abovementioned FIGS. 4 and 5, the number of copies of the target per reaction are given on the x axis and the number of amplicons obtained per microliter of reaction (final reaction volume=100 microliters) are given on the y axis. Specific symbols, for example ▪, □, ▴, ◯, ●, and a percentage, are assigned to the curves in FIGS. 4 and 5. This percentage corresponds to the percentage of the prefunctionalized nucleotide(s) as compared with the natural nucleotides in the TMA amplification reaction. FIGS. 4 and 5 show, respectively, the results of the semiquantification, by means of the ELOSA technique (described in Patent Application PCT WO 92/19812), of the number of amplicons produced from a target range of Mycobacterium tuberculosis 16S RNA in the presence of different ratios of 27a and 27b nucleotides as compared with their respective natural nucleotides.
In order to study the sensitivity of TMA which includes incorporation of prefunctionalized nucleotides, the TMA was performed using decreasing quantities of the target (Mycobacterium tuberculosis 16S RNA, described in Example 22) (10,000, 1000, 100, 10 and 0 copies) in the presence of different ratios between the prefunctionalized nucleotide and its natural analog (100%, 70%, 50%, 30%, 10% and 0%). The same prefunctionalized nucleotides are tested, i.e. 27a (CTP-(N4)-C6O2—NH2) and 27b (CTP-(N4)-C4—NH2).
The reaction products are studied, inter alia, by the method described in Example 22.
The reaction products are also analyzed in a semi-quantitative manner by means of ELOSA (PCT WO 92/19812) and comparison of the intensity of the signals with those of standard ranges.
The reactions which are performed in the presence of (a) prefunctionalized nucleotide(s) are analyzed by electrophoresis and staining, Northern blotting and ELOSA.

[3] = [Prefunctionalized nucl.]/[natural nucl.] in reaction 10%
[4] = [Prefunctionalized nucl.]/[natural nucl.] in reaction 30%
[5] = [Prefunctionalized nucl.]/[natural nucl.] in reaction 50%
[6] = [Prefunctionalized nucl.]/[natural nucl.] in reaction 70%

Row | Substance | incorporation yield: incorporated modified nucleotide / natural nucleotide in TMA amplification products [1, 3] | incorporation yield: incorporated modified nucleotide / natural nucleotide in TMA amplification products [1, 4] | incorporation yield: incorporated modified nucleotide / natural nucleotide in TMA amplification products [1, 5] | incorporation yield: incorporated modified nucleotide / natural nucleotide in TMA amplification products [1, 6] | sensitivity of the TMA reaction [2] | ability to replace the natural nucleotide in TMA ([2]; FIG. 5, ELOSA)
1 | fluorescein-12-UTP [reference compound] | 1/200 | 1/45 | 1/30 | – | – | –
2 | CTP-(N4)-C6O2—NH2 [nucleotide 27a] | 1/33 | 1/9 | 1/5 | 1/3 | not significantly affected | –
3 | CTP-(N4)-C4—NH2 [nucleotide 27b] | – | 1/48 | 1/15 | 1/6 | not significantly affected | able to replace the natural nucleotide
